Laboratory results taken from PubChem BioAssay (NCI).
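Tested at 5 concentrations; 48 h exposure; 96-well plates; endpoints linearly interpolated, else capped at highest concentration. The concentration for full growth arrest is given as TGI.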

How the values were obtained:
Experiment in all cases: inhibition of tumour cell growth, NCI panel, 48 h
UACC-62 melanoma = test system: UACC-62 melanoma
U251 CNS = test system: U251 CNS
NCI-H226 lung = test system: NCI-H226 lung
HCC-2998 colon = test system: HCC-2998 colon
MDA-MB-231 breast = test system: MDA-MB-231 breast
ACHN renal = test system: ACHN renal
DU-145 prostate = test system: DU-145 prostate
HOP-62 NSCLC = test system: HOP-62 NSCLC
SK-OV-3 ovarian = test system: SK-OV-3 ovarian
MDA-MB-435 = test system: MDA-MB-435
A549 NSCLC = test system: A549 NSCLC
NCI-H23 lung = test system: NCI-H23 lung
HT29 colon = test system: HT29 colon
SK-MEL-5 melanoma = test system: SK-MEL-5 melanoma
CAKI-1 renal = test system: CAKI-1 renal
OVCAR-5 ovarian = test system: OVCAR-5 ovarian
BT-549 breast = test system: BT-549 breast
SK-MEL-2 melanoma = test system: SK-MEL-2 melanoma
RPMI-8226 leukemia = test system: RPMI-8226 leukemia
TK-10 renal = test system: TK-10 renal
UACC-257 melanoma = test system: UACC-257 melanoma
CCRF-CEM leukemia = test system: CCRF-CEM leukemia
HCT-15 colon = test system: HCT-15 colon
COLO 205 colon = test system: COLO 205 colon
KM12 colon = test system: KM12 colon
UO-31 renal = test system: UO-31 renal
RXF 393 renal = test system: RXF 393 renal
NCI-H460 lung = test system: NCI-H460 lung
SF-539 CNS = test system: SF-539 CNS
HL-60(TB) leukemia = test system: HL-60(TB) leukemia
SNB-19 CNS = test system: SNB-19 CNS
PC-3 prostate = test system: PC-3 prostate
OVCAR-8 ovarian = test system: OVCAR-8 ovarian
HOP-92 NSCLC = test system: HOP-92 NSCLC
SW-620 colon = test system: SW-620 colon
NCI-H522 lung = test system: NCI-H522 lung
786-0 renal = test system: 786-0 renal
OVCAR-4 ovarian = test system: OVCAR-4 ovarian
MALME-3M melanoma = test system: MALME-3M melanoma
NCI/ADR-RES ovarian = test system: NCI/ADR-RES ovarian
SNB-75 CNS = test system: SNB-75 CNS
T-47D breast = test system: T-47D breast
EKVX NSCLC = test system: EKVX NSCLC
MOLT-4 leukemia = test system: MOLT-4 leukemia
MDA-N = test system: MDA-N
OVCAR-3 ovarian = test system: OVCAR-3 ovarian
HS 578T breast = test system: HS 578T breast
A498 renal = test system: A498 renal
SF-268 CNS = test system: SF-268 CNS
K-562 leukemia = test system: K-562 leukemia
IGROV1 ovarian = test system: IGROV1 ovarian
LOX IMVI melanoma = test system: LOX IMVI melanoma
SF-295 CNS = test system: SF-295 CNS
HCT-116 colon = test system: HCT-116 colon
M14 melanoma = test system: M14 melanoma
SR leukemia = test system: SR leukemia
SN12C renal = test system: SN12C renal
MCF7 breast = test system: MCF7 breast
SK-MEL-28 melanoma = test system: SK-MEL-28 melanoma
DMS 273 small cell lung = test system: DMS 273 small cell lung
DLD-1 colon = test system: DLD-1 colon
LXFL 529 NSCLC = test system: LXFL 529 NSCLC
DMS 114 small cell lung = test system: DMS 114 small cell lung

## CN1CCN(C(=O)CCNC(=O)Cc2ccc(C(=O)c3ccccc3)cc2)CC1
UACC-62 melanoma
  TGI: > 100 µM
U251 CNS
  TGI: > 100 µM
NCI-H226 lung
  TGI: > 100 µM
HCC-2998 colon
  TGI: > 100 µM
MDA-MB-231 breast
  TGI: > 100 µM
ACHN renal
  TGI: > 100 µM
DU-145 prostate
  TGI: > 100 µM
HOP-62 NSCLC
  TGI: > 100 µM
SK-OV-3 ovarian
  TGI: > 100 µM
MDA-MB-435
  TGI: 56 µM
A549 NSCLC
  TGI: > 100 µM
NCI-H23 lung
  TGI: > 100 µM
HT29 colon
  TGI: > 100 µM
SK-MEL-5 melanoma
  TGI: > 100 µM
CAKI-1 renal
  TGI: > 100 µM
OVCAR-5 ovarian
  TGI: > 100 µM
BT-549 breast
  TGI: > 100 µM
SK-MEL-2 melanoma
  TGI: > 100 µM
RPMI-8226 leukemia
  TGI: > 100 µM
TK-10 renal
  TGI: > 100 µM
UACC-257 melanoma
  TGI: > 100 µM
CCRF-CEM leukemia
  TGI: > 100 µM
HCT-15 colon
  TGI: > 100 µM
COLO 205 colon
  TGI: > 100 µM
KM12 colon
  TGI: > 100 µM
UO-31 renal
  TGI: > 100 µM
RXF 393 renal
  TGI: > 100 µM
NCI-H460 lung
  TGI: > 100 µM
SF-539 CNS
  TGI: > 100 µM
HL-60(TB) leukemia
  TGI: > 100 µM
SNB-19 CNS
  TGI: > 100 µM
PC-3 prostate
  TGI: > 100 µM
OVCAR-8 ovarian
  TGI: > 100 µM
HOP-92 NSCLC
  TGI: > 100 µM
SW-620 colon
  TGI: > 100 µM
NCI-H522 lung
  TGI: > 100 µM
786-0 renal
  TGI: > 100 µM
OVCAR-4 ovarian
  TGI: > 100 µM
MALME-3M melanoma
  TGI: > 100 µM
NCI/ADR-RES ovarian
  TGI: > 100 µM
SNB-75 CNS
  TGI: > 100 µM
T-47D breast
  TGI: > 100 µM
EKVX NSCLC
  TGI: > 100 µM
MOLT-4 leukemia
  TGI: > 100 µM
MDA-N
  TGI: 71.5 µM
OVCAR-3 ovarian
  TGI: > 100 µM
HS 578T breast
  TGI: > 100 µM
A498 renal
  TGI: > 100 µM
SF-268 CNS
  TGI: > 100 µM
K-562 leukemia
  TGI: > 100 µM
IGROV1 ovarian
  TGI: > 100 µM
LOX IMVI melanoma
  TGI: > 100 µM
SF-295 CNS
  TGI: > 100 µM
HCT-116 colon
  TGI: > 100 µM
M14 melanoma
  TGI: > 100 µM
SR leukemia
  TGI: > 100 µM
SN12C renal
  TGI: > 100 µM
MCF7 breast
  TGI: > 100 µM
SK-MEL-28 melanoma
  TGI: > 100 µM

## COc1cc([C@H]2Oc3cc(O)c4c(=O)cc(-c5ccccc5)oc4c3O[C@@H]2CO)ccc1O
UACC-62 melanoma
  TGI: > 100 µM
NCI-H226 lung
  TGI: 80.1 µM
HCC-2998 colon
  TGI: > 100 µM
ACHN renal
  TGI: 63.8 µM
HOP-62 NSCLC
  TGI: > 100 µM
SK-OV-3 ovarian
  TGI: 70.3 µM
DMS 273 small cell lung
  TGI: > 100 µM
NCI-H23 lung
  TGI: 69.2 µM
CAKI-1 renal
  TGI: 79.1 µM
SK-MEL-2 melanoma
  TGI: > 100 µM
RPMI-8226 leukemia
  TGI: > 100 µM
CCRF-CEM leukemia
  TGI: > 100 µM
HCT-15 colon
  TGI: > 100 µM
COLO 205 colon
  TGI: > 100 µM
DLD-1 colon
  TGI: > 100 µM
UO-31 renal
  TGI: 58.6 µM
SF-539 CNS
  TGI: 56.6 µM
LXFL 529 NSCLC
  TGI: 77 µM
HL-60(TB) leukemia
  TGI: > 100 µM
HOP-92 NSCLC
  TGI: 58.1 µM
NCI-H522 lung
  TGI: 72 µM
786-0 renal
  TGI: 61.2 µM
OVCAR-4 ovarian
  TGI: 89.4 µM
MALME-3M melanoma
  TGI: 46.3 µM
SNB-75 CNS
  TGI: 39 µM
MOLT-4 leukemia
  TGI: > 100 µM
A498 renal
  TGI: 73.4 µM
SF-268 CNS
  TGI: > 100 µM
DMS 114 small cell lung
  TGI: > 100 µM
K-562 leukemia
  TGI: > 100 µM
IGROV1 ovarian
  TGI: > 100 µM
HCT-116 colon
  TGI: > 100 µM
M14 melanoma
  TGI: > 100 µM
SR leukemia
  TGI: > 100 µM
SN12C renal
  TGI: > 100 µM
SK-MEL-28 melanoma
  TGI: > 100 µM
